Experimental data published in patent publication US8563236B2, “Mutational profiles in HIV-1 reverse transcriptase correlated with phenotypic drug resistance” (priority 1999, dated 2013).

Columns and labels:
Type in all cases: cell-based, HIV-1
[1] = test system: mutants carrying mutation 184V; test: Drug susceptibility assay, site-directed mutants (group statement); settings: high resistance caused by mutation 184V
Procedure: Phenotypic analysis was performed using the recombinant virus assay. See Kellam, P., and B. A. Larder. Antimicrob Agents Chemother 38:23-30 (1994); Hertogs, K., et al., Agents Chemother. 42:269-276 (1998); Pauwels, R., et al., Abstracts of the 2nd International Workshop on HIV Drug Resistance and Treatment Strategies, Abstr. 51. Lake Maggiore, Italy (1998). Briefly, protease (PR) and reverse transcriptase (RT) coding sequences were amplified from patient-derived viral RNA with HIV-1 specific primers. After homologous recombination of amplicons into a PR-RT deleted proviral clone, the resulting recombinant viruses were harvested, titrated and used for in vitro susceptibility testing to antiretroviral drugs. The results of this analysis were expressed as fold-resistance values, reflecting the fold-increase in mean IC50 (μM) of a particular drug when tested with patient-derived recombinant virus isolates, relative to the mean IC50 (μM) of the same drug obtained when tested with a reference wild-type virus isolate (IIIB/LAI).
For the modeling studies, mutations were generated in the RT gene of HXB2, a wild-type laboratory HIV-1 strain, using the QuikChange^J Site-Directed Mutagenesis Kit, Stratagene^7, Stratagene Cloning systems, La Jolla, Calif., USA.
Two of them carried both 44D/A and 181I, while all but one (SDM23) carried ZDV resistance-correlated mutations. […]

[2] = test system: HXB2-D virus with RT 69S-[S-S], 210W, 215Y; test: MT-4 cell CPE protection assay, site-directed mutant virus
Procedure: (§1) Mutations were created in HIV-1 RT by site-directed mutagenesis and the mutant RT was then transferred into the HXB2-D wild-type virus background. The specific mutations created in this background are indicated. The nucleoside susceptibility of mutant viruses (fold increase in IC50 value relative to wild-type HXB2-D virus control) was assessed as described in ‘Methods’.
(§2) MT-4 cells (Harada S., et al, Science 229: 563-566 (1985).) were co-transfected with pol gene PCR fragments and the protease-RT deleted HIV-1 molecular clone, pGEM3ΔPRT, as described. See Hertogs K., et al., Antimicrob. Agents Chemother. 42: 269-276 (1998). […] Phenotypic susceptibility to nucleoside analogues was determined using an MT-4 cell viral cytopathic effect (CPE) protection assay as described. Id. Fold resistance values were derived by dividing the mean IC50 for a patient's recombinant virus by the mean IC50 for wild-type control virus (strain HXB2-D).
(§3) Mutations in the RT coding region were created by site-directed mutagenesis of a wild-type HXB2-D EcoRI-PstI restriction enzyme fragment, encompassing the HIV-1 pol gene and cloned into pGEM3 (Promega). Single and multiple nucleotide changes were introduced into RT using the ExSite mutagenesis kit (Strategene). All mutant clones were verified by DNA sequence analysis of the entire RT. PCR fragments were prepared from the mutated clones and the altered RT coding regions were transferred into the HIV-1 HXB2-D genetic background by homologous recombination as described above. The susceptibility of these recombinant viruses to nucleoside analogues was subsequently determined by the MT-4 cell CPE protection assay. Id.

[3] = test system: HXB2-D virus with RT 69S-[S-S]; test: as above
Procedure: as §1, §2, §3

[4] = test system: HXB2-D virus with RT 210W, 215Y; test: as above
Procedure: as §1, §2, §3

[5] = test system: HXB2-D virus with RT 210W, 215Y, 62V; test: as above
Procedure: as §1, §2, §3

[6] = test system: HXB2-D virus with RT 69S-[S-S], 210W, 215Y, 62V; test: as above
Procedure: as §1, §2, §3

wild-type HXB2-D virus = test: MT-4 cell CPE protection assay, wild-type control virus
Procedure: as §1, §2, §3

[7] = test system: variants with the 69S-[S-S] insert plus AZT resistance mutations; test: MT-4 cell CPE protection assay, site-directed mutant viruses (group statement)
Procedure: as §2
as §3, with “Id. […]” for “Id.”

[8] = test system: samples with AZT and 3TC resistance mutations plus T69A/N or V175M; test: Recombinant virus assay, MDR patient-derived recombinant HIV variants
Excerpt: (§4) FIG. 2: Nucleoside analogue susceptibility of MDR patient-derived recombinant HIV variants. Recombinant viruses were produced from patient plasma samples as described in Example 2 and tested for susceptibility to (a) d4T, (b) ddC and (c) ddI. […] Error bars indicate standard errors. Note that the total number (n=310) is higher than the 302 MDR samples described because a small minority were 69D/N and 75M double mutants and are represented in both groups.
as §2
(§5) From this analysis, 302 samples were identified with four-fold or greater increases in IC50 (relative to a wild-type control virus) to at least four of these inhibitors. Thus, a substantial number of MDR viruses were present in the sample population.
Genotypic analysis was performed on all 892 samples by dideoxy-nucleotide sequencing. […]

[9] = test system: codon 151 cluster viruses
Excerpt: as §4, §2, §5
(§6) Genotypic analysis was performed on all 892 samples by dideoxy-nucleotide sequencing. […] A comparison of the incidence of specific RT mutations in MDR samples versus non-MDR in the population surveyed is shown in FIG. 1. This analysis highlighted the incidence of the codon 151 mutational cluster in the MDR group. In addition, a novel family of amino acid insertions and rearrangements between codons 67 and 70 were also prevalent in the MDR group. These two patterns of mutations were correlated with high-level phenotypic multi-nucleoside resistance (FIG. 2), 27 samples having the codon 151 cluster and 45 samples having insertions and rearrangements (typically a T69S substitution, followed by insertion of two amino acids).

[10] = test system: codon 69 insertion mutants
Excerpt: as §4, §2, §5, §6

[11] = test system: HXB2-D virus with T69A or V75M in a background of AZT mutations; test: MT-4 cell CPE protection assay, site-directed mutant viruses
Procedure: as §2, §3
To investigate the significance of the observed mutational patterns correlated with MDR virus we constructed a series of viruses by site-directed mutagenesis with specific changes in a defined genetic background (HXB2-D). […] In addition, the potential role of A62V, a substitution also frequently correlated with the insertions was investigated by adding this mutation to a background of 69S-[S-S] plus 210W/215Y.

[12] = Human immunodeficiency virus 1, MT4, mean values

Structure (SMILES)	resistance (fold) [1]	Fold increase in IC50 ([2]; {})	Fold increase in IC50 ([3]; {})	Fold increase in IC50 ([4]; {})	Fold increase in IC50 ([5]; {})	Fold increase in IC50 ([6]; {})	IC50 (wild-type HXB2-D virus; [12])	susceptibility [7]	Fold increase in IC50 ([2]; mutant genotype 69S-[S-S], 210W, 215Y, relative to wild-type HXB2-D, mean of two determinations)	Fold increase in IC50 ([3]; mutant genotype 69S-[S-S], relative to wild-type HXB2-D, mean of two determinations)	Fold increase in IC50 ([4]; mutant genotype 210W, 215Y, relative to wild-type HXB2-D, mean of two determinations)	Fold increase in IC50 ([5]; mutant genotype 210W, 215Y, 62V, relative to wild-type HXB2-D, mean of two determinations)	Fold increase in IC50 ([6]; mutant genotype 69S-[S-S], 210W, 215Y, 62V, relative to wild-type HXB2-D, mean of two determinations)	IC50 (wild-type HXB2-D virus; mean values)	level of resistance [8]	mean fold increase in IC50 (resistance) [9]	mean fold increase in IC50 (resistance) [10]	resistance conferred [11]
Nc1ccn([C@@H]2CS[C@H](CO)O2)c(=O)n1 [3TC, lamivudine]	> 62 fold	20 fold	6.2 fold	3.8 fold	1.3 fold	15 fold	1670 nM											
Cc1cn([C@H]2C[C@H](N=[N+]=[N-])[C@@H](CO)O2)c(=O)[nH]c1=O [AZT, zidovudine]								decreased susceptibility										
Nc1nc(NC2CC2)c2ncn(C3C=CC(CO)C3)c2n1 (stereo not drawn) [compound 1592, 4-[(2-amino-6-cyclopropyl-amino)-9H-purin-9-yl]-2-cyclopentene-1-methanol]								decreased susceptibility	4.6 fold	2.6 fold	1.5 fold	0.7 fold	5.4 fold	2900 nM				
Cc1cn([C@H]2C=C[C@@H](CO)O2)c(=O)[nH]c1=O [d4T, stavudine]		4.8 fold	2.3 fold	1.1 fold	0.7 fold	5.2 fold	2390 nM								modest levels of resistance	> 10 fold	> 10 fold	little or no resistance
Nc1ccn([C@H]2CC[C@@H](CO)O2)c(=O)n1 [ddC, zalcitabine]		4.2 fold	2.1 fold	1.2 fold	0.8 fold	2.7 fold	1410 nM								modest levels of resistance	> 10 fold	> 10 fold	little or no resistance
O=c1[nH]cnc2c1ncn2[C@H]1CC[C@@H](CO)O1 [ddI, didanosine]		2.1 fold	1.7 fold	1.2 fold	0.5 fold	1.8 fold	4600 nM											little or no resistance
